{"source": "paper PMC5218480", "about": "(PLoS ONE, 2017)", "test_system": "MV-4-11 cells", "assay": "Gene expression microarray analysis (Affymetrix PrimeView) and GSEA", "format": "cell-based, human", "design": "RFU PODN (11730768_x_at) / Fold change /veh PODN (11730768_x_at) / RFU LINC00158 (11744669_a_at) / Fold change /veh LINC00158 (11744669_a_at) / RFU DUSP10 (11751237_a_at) / Fold change /veh DUSP10 (11751237_a_at) / RFU ID3 (11757404_x_at) / Fold change /veh ID3 (11757404_x_at) / RFU PLEKHG5 (11737974_s_at) / Fold change /veh PLEKHG5 (11737974_s_at) / RFU LRRC4B (11730491_at) / Fold change /veh LRRC4B (11730491_at) / RFU GIMAP4 (11747438_a_at) / Fold change /veh GIMAP4 (11747438_a_at) / RFU KRT8 (11758183_x_at) / Fold change /veh KRT8 (11758183_x_at) / RFU CNN1 (11734310_a_at) / Fold change /veh CNN1 (11734310_a_at) / RFU VPS37D (11726825_at) / Fold change /veh VPS37D (11726825_at) / RFU C10orf10 (11716522_x_at) / Fold change /veh C10orf10 (11716522_x_at) / RFU KIR2DL2 /// KIR2DL4 /// KIR2DL5A /// KIR2DL5B /// KIR2DS1 /// KIR2DS2 /// KIR2DS3 /// KIR2DS4 /// KIR3DL3 /// KIR3DL3 /// KIR3DS1 (11738374_at) / Fold change /veh KIR2DL2 /// KIR2DL4 /// KIR2DL5A /// KIR2DL5B /// KIR2DS1 /// KIR2DS2 /// KIR2DS3 /// KIR2DS4 /// KIR3DL3 /// KIR3DL3 /// KIR3DS1 (11738374_at) / RFU C1QL1 (11718748_at) / Fold change /veh C1QL1 (11718748_at) / RFU TMPRSS4 (11747572_a_at) / Fold change /veh TMPRSS4 (11747572_a_at) / RFU HAMP (11756126_x_at) / Fold change /veh HAMP (11756126_x_at) / RFU RNFT2 (11725882_a_at) / Fold change /veh RNFT2 (11725882_a_at) / RFU NR4A2 (11747474_a_at) / Fold change /veh NR4A2 (11747474_a_at) / RFU ABCC12 (11746883_a_at) / Fold change /veh ABCC12 (11746883_a_at) / RFU TMEM136 (11760407_x_at) / Fold change /veh TMEM136 (11760407_x_at) / RFU CLDN22 /// WWC2 (11732394_at) / Fold change /veh CLDN22 /// WWC2 (11732394_at) / RFU HLA-DPB1 (11760878_x_at) / Fold change /veh HLA-DPB1 (11760878_x_at) / RFU SPINT1 (11716480_a_at) / Fold change /veh SPINT1 (11716480_a_at) / RFU GAP43 (11754022_s_at) / Fold change /veh GAP43 (11754022_s_at) / RFU A4GNT (11735810_at) / Fold change /veh A4GNT (11735810_at) / RFU PRB3 (11715151_x_at) / Fold change /veh PRB3 (11715151_x_at) / RFU TUBB4B (11761932_at) / Fold change /veh TUBB4B (11761932_at) / RFU CAPN14 (11732068_a_at) / Fold change /veh CAPN14 (11732068_a_at) / RFU TMCC2 (11721928_a_at) / Fold change /veh TMCC2 (11721928_a_at) / RFU IRGQ (11745062_a_at) / Fold change /veh IRGQ (11745062_a_at) / RFU FAM174B (11720279_a_at) / Fold change /veh FAM174B (11720279_a_at) / RFU TMPRSS4 (11748680_a_at) / Fold change /veh TMPRSS4 (11748680_a_at) / RFU FAM212B (11763350_a_at) / Fold change /veh FAM212B (11763350_a_at) / RFU PLEKHG5 (11743358_a_at) / Fold change /veh PLEKHG5 (11743358_a_at) / RFU ZSCAN30 (11745921_a_at) / Fold change /veh ZSCAN30 (11745921_a_at) / RFU CMKLR1 (11741424_a_at) / Fold change /veh CMKLR1 (11741424_a_at) / RFU LOC101060620 /// MAPK8IP1 (11723275_at) / Fold change /veh LOC101060620 /// MAPK8IP1 (11723275_at) / RFU SPTSSB (11747773_x_at) / Fold change /veh SPTSSB (11747773_x_at) / RFU PRSS12 (11739890_at) / Fold change /veh PRSS12 (11739890_at) / RFU BIN1 (11741810_x_at) / Fold change /veh BIN1 (11741810_x_at) / RFU WNT11 (11732464_a_at) / Fold change /veh WNT11 (11732464_a_at) / RFU C10orf10 (11716521_a_at) / Fold change /veh C10orf10 (11716521_a_at) / RFU C5orf56 (11738089_at) / Fold change /veh C5orf56 (11738089_at) / RFU CYB561 (11721691_x_at) / Fold change /veh CYB561 (11721691_x_at) / RFU ANKRD19P (11752326_a_at) / Fold change /veh ANKRD19P (11752326_a_at) / RFU OR2T12 /// OR2T33 /// OR2T8 (11738714_s_at) / Fold change /veh OR2T12 /// OR2T33 /// OR2T8 (11738714_s_at) / RFU VCAN (11748164_a_at) / Fold change /veh VCAN (11748164_a_at) / RFU JSRP1 (11732532_at) / Fold change /veh JSRP1 (11732532_at) / RFU KRTAP10-11 (11738290_x_at) / Fold change /veh KRTAP10-11 (11738290_x_at) / RFU MYO3A (11730013_a_at) / Fold change /veh MYO3A (11730013_a_at) / RFU EBF3 (11725865_a_at) / Fold change /veh EBF3 (11725865_a_at) / RFU CAMK2N1 (11719241_x_at) / Fold change /veh CAMK2N1 (11719241_x_at) / RFU C5orf56 (11738088_a_at) / Fold change /veh C5orf56 (11738088_a_at) / RFU OLFML3 (11715873_a_at) / Fold change /veh OLFML3 (11715873_a_at) / RFU LOC100653217 /// NTM (11731650_a_at) / Fold change /veh LOC100653217 /// NTM (11731650_a_at) / RFU MAPK11 (11762145_a_at) / Fold change /veh MAPK11 (11762145_a_at) / RFU FIZ1 (11724087_x_at) / Fold change /veh FIZ1 (11724087_x_at) / RFU OASL (11726364_x_at) / Fold change /veh OASL (11726364_x_at) / RFU SOX15 (11748057_x_at) / Fold change /veh SOX15 (11748057_x_at) / RFU CD79A (11719716_a_at) / Fold change /veh CD79A (11719716_a_at) / RFU HIST1H1D (11736915_at) / Fold change /veh HIST1H1D (11736915_at) / RFU CASKIN2 (11723855_a_at) / Fold change /veh CASKIN2 (11723855_a_at) / RFU LOC730098 (11760151_x_at) / Fold change /veh LOC730098 (11760151_x_at) / RFU OR4N2 (11742367_at) / Fold change /veh OR4N2 (11742367_at) / RFU PRRT2 (11749266_a_at) / Fold change /veh PRRT2 (11749266_a_at) / RFU SNX32 (11753110_a_at) / Fold change /veh SNX32 (11753110_a_at) / RFU CDHR5 (11726645_a_at) / Fold change /veh CDHR5 (11726645_a_at) / RFU RCAN1 (11760418_a_at) / Fold change /veh RCAN1 (11760418_a_at) / RFU FAM167A (11723789_a_at) / Fold change /veh FAM167A (11723789_a_at) / RFU FAM26E (11764081_at) / Fold change /veh FAM26E (11764081_at) / RFU ISYNA1 (11749810_s_at) / Fold change /veh ISYNA1 (11749810_s_at) / RFU ACY1 (11761880_at) / Fold change /veh ACY1 (11761880_at) / RFU 11764098_at / Fold change /veh 11764098_at / RFU SAMD14 (11745864_x_at) / Fold change /veh SAMD14 (11745864_x_at) / RFU NPB (11741838_a_at) / Fold change /veh NPB (11741838_a_at) / RFU TMPRSS6 (11731388_a_at) / Fold change /veh TMPRSS6 (11731388_a_at) / RFU KRTAP10-2 (11738614_at) / Fold change /veh KRTAP10-2 (11738614_at) / RFU ARHGAP8 /// PRR5-ARHGAP8 (11727945_x_at) / Fold change /veh ARHGAP8 /// PRR5-ARHGAP8 (11727945_x_at) / RFU KRTAP5-7 /// NADSYN1 (11734609_at) / Fold change /veh KRTAP5-7 /// NADSYN1 (11734609_at) / RFU RASL12 (11751679_a_at) / Fold change /veh RASL12 (11751679_a_at) / RFU CDKN2B (11736163_a_at) / Fold change /veh CDKN2B (11736163_a_at) / RFU PRF1 (11729649_at) / Fold change /veh PRF1 (11729649_at) / RFU, ZNF638 /// ZNF638-IT1 / Fold change vs veh, ZNF638 /// ZNF638-IT1 / RFU, PANK3 / Fold change vs veh, PANK3 / RFU, SH3YL1 / Fold change vs veh, SH3YL1 / RFU, ZEB2 / Fold change vs veh, ZEB2 / RFU, NRIP1 / Fold change vs veh, NRIP1 / RFU, PTTG1IP / Fold change vs veh, PTTG1IP / RFU, CAPN2 / Fold change vs veh, CAPN2 / RFU, MED14 / Fold change vs veh, MED14 / RFU, SNORA58 / Fold change vs veh, SNORA58 / RFU, C1orf63 / Fold change vs veh, C1orf63 / RFU, LRRFIP1 / Fold change vs veh, LRRFIP1 / RFU, NDUFAF7 / Fold change vs veh, NDUFAF7 / RFU, SLC12A2 / Fold change vs veh, SLC12A2 / RFU, IBTK / Fold change vs veh, IBTK / RFU, ESF1 / Fold change vs veh, ESF1 / Fold change vs veh, TMEM50B / RFU, TAOK1 / Fold change vs veh, TAOK1 / RFU, ACBD3 / Fold change vs veh, ACBD3 / RFU, TMA16 / Fold change vs veh, TMA16 / RFU, RWDD3 / Fold change vs veh, RWDD3 / RFU, BCAT1 / Fold change vs veh, BCAT1 / RFU, EDEM3 / Fold change vs veh, EDEM3 / RFU, TMEM33 / Fold change vs veh, TMEM33 / RFU, WDR75 / Fold change vs veh, WDR75 / RFU, AHCTF1 / Fold change vs veh, AHCTF1 / RFU, TFRC / Fold change vs veh, TFRC / RFU, ZDHHC17 / Fold change vs veh, ZDHHC17 / RFU, NOM1 / Fold change vs veh, NOM1 / RFU, ARL8B / Fold change vs veh, ARL8B / RFU, ZBTB11 / Fold change vs veh, ZBTB11 / RFU, TAMM41 / Fold change vs veh, TAMM41 / RFU, KIAA1704 /// LOC100996395 / Fold change vs veh, KIAA1704 /// LOC100996395 / RFU, ING1 / Fold change vs veh, ING1 / RFU, TRMT61B / Fold change vs veh, TRMT61B / RFU, FUBP3 / Fold change vs veh, FUBP3 / RFU, TP53 / Fold change vs veh, TP53 / RFU, TNKS2 / Fold change vs veh, TNKS2 / RFU, ZFP14 / Fold change vs veh, ZFP14 / RFU, ACTR2 / Fold change vs veh, ACTR2 / RFU, PPP3R1 / Fold change vs veh, PPP3R1 / RFU, PIK3R1 / Fold change vs veh, PIK3R1 / RFU, HNRNPA1 / Fold change vs veh, HNRNPA1 / RFU, RNF170 / Fold change vs veh, RNF170 / RFU, ZNF28 / Fold change vs veh, ZNF28 / RFU, RNGTT / Fold change vs veh, RNGTT / RFU, OGT / Fold change vs veh, OGT / RFU, BRD1 / Fold change vs veh, BRD1 / RFU, MARS / Fold change vs veh, MARS / RFU, ZNF655 / Fold change vs veh, ZNF655 / RFU, FAHD1 / Fold change vs veh, FAHD1 / RFU, BDP1 / Fold change vs veh, BDP1 / RFU, LRRCC1 / Fold change vs veh, LRRCC1 / RFU, ARID1A / Fold change vs veh, ARID1A / RFU, ZNF146 / Fold change vs veh, ZNF146 / RFU, ZNF330 / Fold change vs veh, ZNF330 / RFU, GPN3 / Fold change vs veh, GPN3 / RFU, C9orf123 / Fold change vs veh, C9orf123 / RFU, N4BP2L2 / Fold change vs veh, N4BP2L2 / RFU, ARFIP1 / Fold change vs veh, ARFIP1 / RFU, FAM179B / Fold change vs veh, FAM179B / RFU, BCL10 / Fold change vs veh, BCL10 / RFU, UHRF1BP1L / Fold change vs veh, UHRF1BP1L / RFU, BET1 / Fold change vs veh, BET1 / RFU, CNOT2 / Fold change vs veh, CNOT2 / RFU, ZNF268 / Fold change vs veh, ZNF268 / Fold change vs veh, ZNF507 / RFU, DGCR2 / Fold change vs veh, DGCR2 / RFU, WDSUB1 / Fold change vs veh, WDSUB1 / Fold change vs veh, HSP90B1 /// MIR3652 / RFU, ADSS / Fold change vs veh, ADSS / RFU, GK / Fold change vs veh, GK / RFU, ZNF148 / Fold change vs veh, ZNF148 / RFU, TAF9 / Fold change vs veh, TAF9 / RFU, SLC1A5 / Fold change vs veh, SLC1A5 / RFU, SLMO2 / Fold change vs veh, SLMO2 / RFU, ABCC4 / Fold change vs veh, ABCC4 / RFU, LOC101060439 /// RAP1B / Fold change vs veh, LOC101060439 /// RAP1B / RFU, RFX7 / Fold change vs veh, RFX7 / RFU, GTPBP10 / Fold change vs veh, GTPBP10 / RFU, CNEP1R1 / Fold change vs veh, CNEP1R1 / RFU, BIVM-ERCC5 /// ERCC5 / Fold change vs veh, BIVM-ERCC5 /// ERCC5 / RFU, ILF3 / Fold change vs veh, ILF3 / RFU 11762660_at / Fold change /veh 11762660_at / RFU VCAN (11757783_s_at) / Fold change /veh VCAN (11757783_s_at) / RFU DDX43 (11728927_at) / Fold change /veh DDX43 (11728927_at) / RFU KRT8 (11758188_x_at) / Fold change /veh KRT8 (11758188_x_at) / RFU NKD1 (11759106_at) / Fold change /veh NKD1 (11759106_at) / RFU SRD5A1 (11742802_a_at) / Fold change /veh SRD5A1 (11742802_a_at) / RFU TPSAB1 /// TPSB2 (11721975_s_at) / Fold change /veh TPSAB1 /// TPSB2 (11721975_s_at) / RFU GSTM3 (11746129_a_at) / Fold change /veh GSTM3 (11746129_a_at) / RFU IL23R (11737362_x_at) / Fold change /veh IL23R (11737362_x_at) / RFU TMEM51 (11727254_a_at) / Fold change /veh TMEM51 (11727254_a_at) / RFU PIWIL2 (11732686_x_at) / Fold change /veh PIWIL2 (11732686_x_at) / RFU ORM1 (11744905_x_at) / Fold change /veh ORM1 (11744905_x_at) / RFU CCDC152 (11743942_at) / Fold change /veh CCDC152 (11743942_at) / RFU ECM1 (11717891_a_at) / Fold change /veh ECM1 (11717891_a_at) / RFU IL23R (11748794_a_at) / Fold change /veh IL23R (11748794_a_at) / RFU TNFAIP8L3 (11732012_x_at) / Fold change /veh TNFAIP8L3 (11732012_x_at) / RFU MBOAT4 (11741988_at) / Fold change /veh MBOAT4 (11741988_at) / RFU 11764193_at / Fold change /veh 11764193_at / RFU TMEM53 (11763286_at) / Fold change /veh TMEM53 (11763286_at) / RFU MAGEB2 (11727129_at) / Fold change /veh MAGEB2 (11727129_at) / RFU TMEM200A (11744735_a_at) / Fold change /veh TMEM200A (11744735_a_at) / RFU CCDC152 (11751479_a_at) / Fold change /veh CCDC152 (11751479_a_at) / RFU FAM211A (11726209_a_at) / Fold change /veh FAM211A (11726209_a_at) / RFU RGS16 (11746705_a_at) / Fold change /veh RGS16 (11746705_a_at) / RFU VCAN (11755009_s_at) / Fold change /veh VCAN (11755009_s_at) / RFU RHOB (11743442_s_at) / Fold change /veh RHOB (11743442_s_at) / RFU RGS16 (11720943_a_at) / Fold change /veh RGS16 (11720943_a_at) / RFU RGS16 (11720944_at) / Fold change /veh RGS16 (11720944_at) / RFU, VPS4B / Fold change vs veh, VPS4B / RFU, CREB1 / Fold change vs veh, CREB1 / RFU, DNAJC13 / Fold change vs veh, DNAJC13 / RFU, GNAQ / Fold change vs veh, GNAQ / RFU, CDK5R1 / Fold change vs veh, CDK5R1 / RFU, ZRANB3 / Fold change vs veh, ZRANB3 / RFU, CUL4A / Fold change vs veh, CUL4A / RFU, CCNY / Fold change vs veh, CCNY / RFU, UFL1 / Fold change vs veh, UFL1 / RFU, COG3 / Fold change vs veh, COG3 / RFU, DIAPH2 / Fold change vs veh, DIAPH2 / RFU, SKA2 / Fold change vs veh, SKA2 / RFU, AFF3 / Fold change vs veh, AFF3 / RFU, LMF1 / Fold change vs veh, LMF1 / RFU, IPO11 / Fold change vs veh, IPO11 / RFU, DFFB / Fold change vs veh, DFFB / RFU, FOXP1 / Fold change vs veh, FOXP1 / RFU, CARD8 / Fold change vs veh, CARD8 / RFU, STRN3 / Fold change vs veh, STRN3 / RFU, ADK / Fold change vs veh, ADK / RFU, RASSF2 / Fold change vs veh, RASSF2 / RFU, WIPF1 / Fold change vs veh, WIPF1 / RFU, LARP1B / Fold change vs veh, LARP1B / RFU, RASA1 / Fold change vs veh, RASA1 / RFU, RB1 / Fold change vs veh, RB1 / RFU, PPFIA1 / Fold change vs veh, PPFIA1 / RFU, MAT2A / Fold change vs veh, MAT2A / RFU, CCT5 / Fold change vs veh, CCT5 / RFU, WDR92 / Fold change vs veh, WDR92 / RFU, CUX1 / Fold change vs veh, CUX1 / RFU, TTC7A / Fold change vs veh, TTC7A / RFU, TMEM135 / Fold change vs veh, TMEM135 / RFU, DEPTOR / Fold change vs veh, DEPTOR / RFU, CPM / Fold change vs veh, CPM / RFU, DNAJB6 / Fold change vs veh, DNAJB6 / RFU, CACNA2D3 / Fold change vs veh, CACNA2D3 / RFU, DTX4 / Fold change vs veh, DTX4 / RFU, TFCP2 / Fold change vs veh, TFCP2 / RFU, GMCL1 /// GMCL1P1 / Fold change vs veh, GMCL1 /// GMCL1P1 / RFU, AEBP2 / Fold change vs veh, AEBP2 / RFU, SNHG1 /// SNORD22 /// SNORD25 /// SNORD26 /// SNORD27 /// SNORD28 /// SNORD29 /// SNORD31 / Fold change vs veh, SNHG1 /// SNORD22 /// SNORD25 /// SNORD26 /// SNORD27 /// SNORD28 /// SNORD29 /// SNORD31 / Fold change (Aza/veh), C12orf56 (ProbeSet 11735607_a_at) / Fold change (ACY-1035/veh), C12orf56 (ProbeSet 11735607_a_at) / Fold change (Aza/veh), FGFR1OP (ProbeSet 11751329_s_at) / Fold change (ACY-1035/veh), FGFR1OP (ProbeSet 11751329_s_at) / Fold change (Aza/veh), VPS36 (ProbeSet 11739960_a_at) / Fold change (ACY-1035/veh), VPS36 (ProbeSet 11739960_a_at) / RFU SYPL1 (11715823_x_at) / Fold change /veh SYPL1 (11715823_x_at) / RFU IGFBP7 (11715501_s_at) / Fold change /veh IGFBP7 (11715501_s_at) / RFU REEP3 (11722064_at) / Fold change /veh REEP3 (11722064_at) / RFU IGLL1 (11728026_x_at) / Fold change /veh IGLL1 (11728026_x_at): dose or concentration left out as unconfirmed", "conditions": "MV-4-11 cells, 48 hours", "data": [{"smiles": "Nc1ncn([C@@H]2O[C@H](CO)[C@@H](O)[C@H]2O)c(=O)n1", "note": "[azacitidine]", "values": [{"measurement": "RFU IGLL1 (11728026_x_at)", "value": 12.85, "unit": "RFU"}]}]}
